Paper PMC6627698, “Redesigning Arenicin-1, an Antimicrobial Peptide from the Marine Polychaeta Arenicola marina, by Strand Rearrangement or Branching, Substitution of Specific Residues, and Backbone Linearization or Cyclization” (Marine Drugs, 2019)
Residues, ends and D or L forms follow the SMILES beside them.

Experiments:
[1] = test system: E. coli ATCC 25922; type: cell-based, Escherichia coli; conditions: ATCC 25922, 18 h
Source text: (§1) E. coli ML35p, Listeria monocytogenes EGD, methicillin-resistant Staphylococcus aureus (MRSA) ATCC 33591 were kindly provided by Prof. Robert Lehrer (University of California, Los Angeles, CA, USA); E. coli ATCC 25922, E. coli M15, Pseudomonas aeruginosa ATCC 27853, S. aureus ATCC 25923 were provided by Dr. Elena Ermolenko (Institute of Experimental Medicine, St-Petersburg, Russia); drug-resistant clinical isolates were provided by Prof. Gennadiy Afinogenov (Saint Petersburg State University, Russia); S. aureus 710A has been described previously. The following clinical isolates of bacteria were used: P.s aeruginosa resistant to aztreonam, ceftazidime, cefotaxime (obtained from the urine of a patient with cystitis), Acinetobacter baumannii resistant to meropenem (from an infected wound); Staphylococcus intermedius (from an infected wound caused by a dog bite) resistant to ciprofloxacin, cefuroxime, clindamycin, erythromycin, rifampin, gentamicin, benzylpenicillin, oxacillin.
(§2) This assay was applied to determine the MIC, according to the guidelines of the Clinical and Laboratory Standards Institute, using Mueller Hinton (MH) Broth. We prepared 2x stocks of peptides and serially diluted them in sterile PBS instead of Mueller Hinton Broth, so that the treatment of the bacteria with the peptides was carried out in a medium containing 50% of MH and 50% of PBS, as described. The overnight cultures of each strain were transferred to fresh MH media and further incubated to obtain a mid-logarithmic-growth-phase culture of bacteria. The absorbance of each bacterial suspension was measured at 620 nm, and bacteria were then diluted to approximately 2 × 10^5 CFU/mL. Then, 50 µL of the suspensions were mixed with 50 µL of the peptide dilutions in the wells of a microtiter plate (pre-treated for 1 h at 37 °C with 0.2% bovine serum albumin (BSA) in water, sterilized by filtration, to diminish the non-specific binding of the peptides to the plastic surfaces).

[2] = test system: E. coli M15; type: cell-based, Escherichia coli; conditions: M15, 18 h
Source text: as §1, §2

[3] = test system: P. aeruginosa c.i.; type: cell-based, Pseudomonas aeruginosa; conditions: 18 h
Source text: as §1, §2

[4] = test system: MRSA ATCC 33591; type: cell-based, Staphylococcus aureus; conditions: ATCC 33591, 18 h
Source text: as §1, §2

[5] = test system: S. aureus ATCC 25923; type: cell-based, Staphylococcus aureus; conditions: ATCC 25923, 18 h
Source text: as §1, §2

[6] = test system: S. aureus c.i.; type: cell-based, Staphylococcus aureus; conditions: 18 h
Source text: as §1, §2

[7] = test system: Staphylococcus intermidius; type: cell-based, Staphylococcus intermedius; conditions: 18 h
Source text: as §1, §2

[8] = test system: E. coli ML35p outer membrane; assay: Outer membrane permeabilization assay (nitrocefin hydrolysis); type: cell-based, Escherichia coli; conditions: peptide at 2 × MIC, 10 mM sodium phosphate buffer, 100 mM NaCl, pH 7.4, 37 °C, 486 nm
Method: Figure 5 Permeabilizing effect of arenicin-1 variants on E. coli ML35p outer and cytoplasmic membranes.
The E. coli ML35p outer membrane permeability was assessed by monitoring hydrolysis of the chromogenic β-lactamase substrate nitrocefin (3-(2,4-dinitrostyryl)-(6R,7R)-7-(2-thienyl acetamido)ceph-3-em-4-carboxylic acid) (Calbiochem-Novabiochem, San-Diego, CA, USA) by detection of the hydrolysis product at 486 nm. Inner membrane permeability was monitored by measuring the hydrolysis of o-nitrophenyl-β-D-galactoside (ONPG, Sigma, La Jolla, CA, USA) at 420 nm. The E. coli ML35p strain expresses a plasmid-encoded periplasmic β-lactamase; it constitutively expresses cytoplasmic β-galactosidase and lacks lactose permease. E. coli ML35p was maintained on trypticase soy agar plates containing […] of ampicillin per mL. The bacteria used for antimicrobial testing or membrane permeability assays were picked from a single colony, incubated in 50 mL of sterile Trypticase soy broth for 16 h at 37 °C, washed three times with 10 mM sodium phosphate buffer (pH 7.4), adjusted to an optical density at 620 nm of 1 (2.5 × 10^8 CFU/mL), and kept on ice until use. The assays were performed in 96-well microtiter plates that were monitored every minute with a SpectraMax 250 Microplate Spectrophotometer (Molecular Devices, Sunnyvale, CA, USA) using the SOFTmax PRO software supplied by the manufacturer. […]

[9] = test system: set of Gram-negative and Gram-positive bacteria, including drug-resistant clinical isolates; type: cell-based; conditions: 12 strains; median MICs used; MIC > 16 µM taken as 32 µM
Method: To obtain a global assessment of the effect on antimicrobial activity, the geometric mean of the MIC (G-MIC) was calculated, and from this, the overall improvement or impoverishment with respect to arenicin-1. In general, inverting the symmetry or decreasing the charge had detrimental effects.
The overall activity against a set of tested bacterial strains was determined by way of the commonly used geometric mean of measured MIC values. […] At the same time, the geometric mean can still discriminate antimicrobial agents showing minor variations in activity; in other words, it has a better “resolution” than the median MIC (MIC50). Some mathematical basics for choosing the geometric mean for antimicrobial activity comparison are further discussed in the Supplementary Chapter S3.

[10] = test system: Acinetobacter baumanii c.i.; type: cell-based, Acinetobacter baumannii; conditions: 18 h
Source text: as §1, §2

[11] = test system: human erythroleukemia K-562 cells; type: cell-based; conditions: 24 h
Method: The standard MTT ((3-(4,5-Dimethylthiazol-2-yl)-2,5-diphenyltetrazolium bromide) test was used for the examination of the cytotoxic activity of AMPs towards human erithroleukemia cells K-562. The cells were purchased from Biolot (Saint Petersburg, Russia) and were grown in RPMI 1640 medium (Biolot, Saint Petersburg, Russia) supplemented with glutamine and 10% FCS. Before the experiment, the culturing medium was replaced with serum-free RPMI 1640. Serial dilutions of the peptides in RPMI were plated in sterile 96-well microplates, and the target cells were dispensed to the microplates (10^5 cells/well in RPMI 1640). The plates were incubated for 24 h at 37 °C under 5% CO2. Cell-free media and cells incubated without peptides served as controls. Four hours before the incubation ended, MTT in PBS (5 mg/mL) was added to each well. After the incubation was stopped by adding isopropanol/ 0.04 M HCl, the optical density was measured at 540 nm, subtracting the background absorbance at 690 nm. Toxicity was determined by nonlinear regression analysis of the corresponding dose–response curves using the Sigma Plot 11 program to calculate the IC50 values (the concentration of the test substance that reduced the OD540 capacity by 50%).

[12] = test system: Listeria monocytogenes EGD; type: cell-based; conditions: 18 h
Source text: as §1, §2

[13] = test system: Staphylococcus aureus 710A; type: cell-based; conditions: 18 h
Source text: as §1, §2

[14] = test system: Escherichia coli ML35p; type: cell-based; conditions: broth microdilution, 50% Mueller Hinton broth / 50% PBS, 18 h at 37 °C, median of 3–5 experiments in triplicates
Source text: as §1, §2

[15] = test system: Pseudomonas aeruginosa ATCC 27853; type: cell-based; conditions: ATCC 27853, 18 h
Source text: as §1, §2

SMILES	Minimal Inhibitory Concentrations (MIC) [1] [µM]	Minimal Inhibitory Concentrations (MIC) [2] [µM]	Minimal Inhibitory Concentrations (MIC) [3] [µM]	Minimal Inhibitory Concentrations (MIC) [4] [µM]	Minimal Inhibitory Concentrations (MIC) [5] [µM]	Minimal Inhibitory Concentrations (MIC) [6] [µM]	Minimal Inhibitory Concentrations (MIC) [7] [µM]	Capacity to permeabilize the outer membrane with respect to arenicin-1 [8]	G-MIC (geometric mean of all determined MICs) [9] [µM]	Minimal Inhibitory Concentrations (MIC) [10] [µM]	IC50 [11] [µM]	Minimal Inhibitory Concentrations (MIC) [12] [µM]	Minimal Inhibitory Concentrations (MIC) [13] [µM]	Minimal Inhibitory Concentrations (MIC) [14] [µM]	Minimal Inhibitory Concentrations (MIC) [15] [µM]
CC(C)C[C@@H]1NC(=O)[C@H](C(C)C)NC(=O)CNC(=O)[C@H](CCCCN)NC(=O)[C@H](C(C)C)NC(=O)[C@H](CCCCN)NC(=O)[C@H](C(C)C)NC(=O)[C@H](Cc2ccc(O)cc2)NC(=O)[C@H](C)NC(=O)[C@H](Cc2ccc(O)cc2)NC(=O)[C@H](C(C)C)NC(=O)[C@@H](NC(=O)[C@H](Cc2c[nH]c3ccccc23)NC(=O)[C@@H](N)CCCCN)CSSC[C@@H](C(=O)N[C@@H](Cc2c[nH]c3ccccc23)C(=O)O)NC(=O)[C@H](CCCCN)NC(=O)[C@H](CCCCN)NC(=O)[C@H](Cc2ccc(O)cc2)NC(=O)[C@H](CCCCN)NC(=O)[C@H](C(C)C)NC1=O [AR-K] (HELM PEPTIDE1{K.W.C.V.Y.A.Y.V.K.V.K.G.V.L.V.K.Y.K.K.C.W}$PEPTIDE1,PEPTIDE1,3:R3-20:R3$$$V2.0; N-terminus assumed)	2	1	2 to 4	2	2	4	4	improved capacity to permeabilize the outer membrane	1.9	1	7.7	2	2	1	1 to 2
CC(C)C[C@@H]1NC(=O)[C@H](C(C)C)NC(=O)CNC(=O)[C@H](CCCNC(=N)N)NC(=O)[C@H](C(C)C)NC(=O)[C@H](CCCNC(=N)N)NC(=O)[C@H](C(C)C)NC(=O)[C@H](Cc2ccc(O)cc2)NC(=O)[C@H](C)NC(=O)[C@H](Cc2ccc(O)cc2)NC(=O)[C@H](C(C)C)NC(=O)[C@@H]2CSSC[C@H](NC(=O)[C@H](CCCNC(=N)N)NC(=O)[C@H](CCCNC(=N)N)NC(=O)[C@H](Cc3ccc(O)cc3)NC(=O)[C@H](CCCNC(=N)N)NC(=O)[C@H](C(C)C)NC1=O)C(=O)N[C@@H](Cc1c[nH]c3ccccc13)C(=O)N[C@@H](CCCNC(=N)N)C(=O)N[C@@H](Cc1c[nH]c3ccccc13)C(=O)N2 [ARcycl] (HELM PEPTIDE1{R.W.C.V.Y.A.Y.V.R.V.R.G.V.L.V.R.Y.R.R.C.W}$PEPTIDE1,PEPTIDE1,3:R3-20:R3|PEPTIDE1,PEPTIDE1,1:R1-21:R2$$$V2.0)	2	2	2	4	2	4	4	improved capacity to permeabilize the outer membrane		4	16.2	2	2		1
